Measured values reported in patent US20050074867A1, “Preservation of competent cells at ambient temperatures” (priority 2001, published 2005).

Test system: Escherichia coli ATCC strain MM294 cells
Test: Preservation survival of electrocompetent E. coli MM294 cells dried by foam formation (plate count)
Assay type: cell-based
Settings: cells loaded with 10% MAG, preserved (dried) by foam formation; average of three independent experiments
Protocol: (1) Preparation of fresh electrocompetent cells: Escherichia coli ATCC strain MM294 cells were grown under standard conditions in L-broth (growth medium for E. coli), at 37° C., with moderate aeration (shaking at 250 rpm). An isolated colony from a fresh streak was inoculated into 5 ml of L-broth and incubated overnight (preculture). The following morning, the preculture was subcultured (1% inoculum) in 100 ml of L-broth+glucose (0.05%-0.5%). The cells were incubated until OD550=0.5 (subculture). At this point, the cells were transferred into 250 ml of L-broth+glucose (0.05%-0.5%) and incubation continued until OD550=0.8. Two flasks with 250 ml of cells were prepared.
When the culture OD550 reached 0.8 (cell density approx. 5×10^8 cfu/ml), the cells were harvested by centrifugation at 2,500 rpm (at room temperature) for 10 minutes. […] Bacterial counts were determined by diluting cells in PBS buffer and spread plating appropriate dilutions in duplicate on L-agar. The plates were incubated at 37° C. overnight and colonies were counted the following day. […]
(5) Assaying the preserved E. coli cells: Dried samples were rehydrated at room temperature. […] Plates were incubated at 37° C. overnight and colonies were counted the following day. […]

COC1OC(CO)C(O)C(O)C1O (centres unmarked) [MAG, a-methyl-glucoside]
Preservation Yield Cfu/ml: 1.1 × 10^10 Cfu/ml
Preservation yield %: 53.5%
